Test results as given in ChEMBL document CHEMBL3885881, “DrugMatrix”.

Organism: Rattus norvegicus
Assay: DrugMatrix - Regimen: Daily Repeat
Assay type: toxicity, organism-based, Sprague-Dawley
Set-up: regimen Daily Repeat, gender Male, age 6-8 weeks
Details: in vivo, iv, vehicle 100 % SALINE; for ABSOLUTE BASOPHIL / ABSOLUTE EOSINOPHIL / ABSOLUTE LYMPHOCYTE / ABSOLUTE MONOCYTE / ABSOLUTE SEGMENTED NEUTROPHIL / BASOPHIL / EOSINOPHIL / ERYTHROCYTE COUNT / HEMATOCRIT / HEMOGLOBIN / LEUKOCYTE COUNT / LYMPHOCYTE / MEAN CORPUSCULAR HEMOGLOBIN / MEAN CORPUSCULAR HEMOGLOBIN CONCENTRATION / MEAN CORPUSCULAR VOLUME / MONOCYTE / NEUTROPHIL / NUCLEATED RED BLOOD CELLS / PLATELET COUNT: tissue Blood; for ALANINE AMINOTRANSFERASE / ALBUMIN / ALKALINE PHOSPHATASE / ASPARTATE AMINOTRANSFERASE / BLOOD UREA NITROGEN / CARBON DIOXIDE / CHLORIDE / CHOLESTEROL / CREATINE PHOSPHOKINASE / CREATININE / GLUCOSE / LACTATE DEHYDROGENASE / LIPASE / PHOSPHORUS / POTASSIUM / SODIUM / TOTAL BILIRUBIN / TOTAL PROTEIN / URIC ACID: tissue Plasma
[1] = 23 mg/kg, 120 h, dose level Low, time 5 day
[2] = 487 mg/kg, 72 h, dose level High, time 3 day
[3] = 487 mg/kg, 120 h, dose level High, time 5 day

## Nc1ccn([C@@H]2O[C@H](CO)[C@@H](O)[C@@H]2O)c(=O)n1 [CYTARABINE]
[1]
  ABSOLUTE BASOPHIL: 0 CELLS/uL
  ABSOLUTE EOSINOPHIL: 0 CELLS/uL
  ABSOLUTE LYMPHOCYTE: 5539 CELLS/uL
  ABSOLUTE MONOCYTE: 16.67 CELLS/uL
  ABSOLUTE SEGMENTED NEUTROPHIL: 244.33 CELLS/uL
  BASOPHIL: 0%
  EOSINOPHIL: 0%
  ERYTHROCYTE COUNT: 5.12 x10E6/uL
  HEMATOCRIT: 33.83%
  HEMOGLOBIN: 13.53 G/DL
  LEUKOCYTE COUNT: 5.8 x10E3/uL
  LYMPHOCYTE: 95%
  MEAN CORPUSCULAR HEMOGLOBIN: 26.47 pg
  MEAN CORPUSCULAR HEMOGLOBIN CONCENTRATION: 40 G/DL
  MEAN CORPUSCULAR VOLUME: 66.2 fL
  MONOCYTE: 0.33%
  NEUTROPHIL: 4.67%
  NUCLEATED RED BLOOD CELLS: 0 /100WBC
  PLATELET COUNT: 1095.67 x10E3/uL
  ALANINE AMINOTRANSFERASE: 41.67 u/L
  ALBUMIN: 4.1 G/DL
  ALKALINE PHOSPHATASE: 306.67 u/L
  ASPARTATE AMINOTRANSFERASE: 78.33 u/L
  BLOOD UREA NITROGEN: 12.67 mg/dL
  CARBON DIOXIDE: 26.33 mmol/L
  CHLORIDE: 99.33 MEQ/L
  CHOLESTEROL: 67.67 mg/dL
  CREATINE PHOSPHOKINASE: 261.33 u/L
  CREATININE: 0.21 mg/dL
  GLUCOSE: 172 mg/dL
  LACTATE DEHYDROGENASE: 75 u/L
  LIPASE: 11.33 u/L
  PHOSPHORUS: 10.17 mg/dL
  POTASSIUM: 5.08 MEQ/L
  SODIUM: 144.13 MEQ/L
  TOTAL BILIRUBIN: 0.17 mg/dL
  TOTAL PROTEIN: 5.77 G/DL
  URIC ACID: 0.87 mg/dL
[2]
  ABSOLUTE BASOPHIL: 0 CELLS/uL
  ABSOLUTE EOSINOPHIL: 62 CELLS/uL
  ABSOLUTE LYMPHOCYTE: 7623.33 CELLS/uL
  ABSOLUTE MONOCYTE: 62 CELLS/uL
  ABSOLUTE SEGMENTED NEUTROPHIL: 686 CELLS/uL
  BASOPHIL: 0%
  EOSINOPHIL: 0.67%
  ERYTHROCYTE COUNT: 4.4 x10E6/uL
  HEMATOCRIT: 28.67%
  HEMOGLOBIN: 11.3 G/DL
  LEUKOCYTE COUNT: 8.43 x10E3/uL
  LYMPHOCYTE: 91.33%
  MEAN CORPUSCULAR HEMOGLOBIN: 25.7 pg
  MEAN CORPUSCULAR HEMOGLOBIN CONCENTRATION: 39.4 G/DL
  MEAN CORPUSCULAR VOLUME: 65.13 fL
  MONOCYTE: 0.67%
  NEUTROPHIL: 7.33%
  NUCLEATED RED BLOOD CELLS: 0 /100WBC
  PLATELET COUNT: 1093.33 x10E3/uL
  ALANINE AMINOTRANSFERASE: 45.67 u/L
  ALBUMIN: 4.07 G/DL
  ALKALINE PHOSPHATASE: 302.33 u/L
  ASPARTATE AMINOTRANSFERASE: 81.33 u/L
  BLOOD UREA NITROGEN: 12 mg/dL
  CARBON DIOXIDE: 31 mmol/L
  CHLORIDE: 101.67 MEQ/L
  CHOLESTEROL: 77.67 mg/dL
  CREATINE PHOSPHOKINASE: 242.33 u/L
  CREATININE: 0.19 mg/dL
  GLUCOSE: 168.33 mg/dL
  LACTATE DEHYDROGENASE: 55.33 u/L
  LIPASE: 10.67 u/L
  PHOSPHORUS: 10.87 mg/dL
  POTASSIUM: 5.4 MEQ/L
  SODIUM: 145.23 MEQ/L
  TOTAL BILIRUBIN: 0.2 mg/dL
  TOTAL PROTEIN: 5.93 G/DL
  URIC ACID: 0.8 mg/dL
[3]
  ABSOLUTE BASOPHIL: 0 CELLS/uL
  ABSOLUTE EOSINOPHIL: 10 CELLS/uL
  ABSOLUTE LYMPHOCYTE: 3604.33 CELLS/uL
  ABSOLUTE MONOCYTE: 0 CELLS/uL
  ABSOLUTE SEGMENTED NEUTROPHIL: 152.33 CELLS/uL
  BASOPHIL: 0%
  EOSINOPHIL: 0.33%
  ERYTHROCYTE COUNT: 4.2 x10E6/uL
  HEMATOCRIT: 26.53%
  HEMOGLOBIN: 10.7 G/DL
  LEUKOCYTE COUNT: 3.77 x10E3/uL
  LYMPHOCYTE: 95.67%
  MEAN CORPUSCULAR HEMOGLOBIN: 25.43 pg
  MEAN CORPUSCULAR HEMOGLOBIN CONCENTRATION: 40.37 G/DL
  MEAN CORPUSCULAR VOLUME: 63.07 fL
  MONOCYTE: 0%
  NEUTROPHIL: 4%
  NUCLEATED RED BLOOD CELLS: 0 /100WBC
  PLATELET COUNT: 1216.67 x10E3/uL
  ALANINE AMINOTRANSFERASE: 41.67 u/L
  ALBUMIN: 4.1 G/DL
  ALKALINE PHOSPHATASE: 275.33 u/L
  ASPARTATE AMINOTRANSFERASE: 82.33 u/L
  BLOOD UREA NITROGEN: 13.33 mg/dL
  CARBON DIOXIDE: 26 mmol/L
  CHLORIDE: 100.67 MEQ/L
  CHOLESTEROL: 71.33 mg/dL
  CREATINE PHOSPHOKINASE: 326 u/L
  CREATININE: 0.23 mg/dL
  GLUCOSE: 159 mg/dL
  LACTATE DEHYDROGENASE: 65 u/L
  LIPASE: 11 u/L
  PHOSPHORUS: 9.23 mg/dL
  POTASSIUM: 5.41 MEQ/L
  SODIUM: 145.37 MEQ/L
  TOTAL BILIRUBIN: 0.2 mg/dL
  TOTAL PROTEIN: 5.7 G/DL
  URIC ACID: 0.57 mg/dL
